Results taken from patent US20210308101A1, “METHODS OF TREATING FIBROMYALGIA” (Aptinyx Inc., priority 2019, published 2021).

Columns and labels:
Format in all cases: in vivo, human
[1] = tested on: subjects with fibromyalgia; assay: Multidimensional Inventory of Subject Cognitive Impairment (MISCI); details: not statistically significant
Source text: As used herein, “MISCI” is Multidimensional Inventory of Subject Cognitive Impairment. The MISCI is a 10-item assessment that measures cognitive function. The instrument examines 5 cognitive domains: mental clarity, memory, language, executive functioning, and attention/concentration. The first 6 items are positively worded and reflect perceived cognitive abilities and the last 4 items are negatively worded and reflect perceived cognitive difficulties. The same scoring metric is used for both response scales. However, the scores on items 7-10 must be reverse-coded prior to summing the responses to generate the total score due to the negative wording of these items. Here is a list of the categorical responses with the numeric values that make up the total score: • Positively Worded Items 1-6:“Not at All”=1; “A Little Bit”=2; “Somewhat”=3; “Quite a Bit”=4; “Very Much”=5 • Negatively Worded Items 7-10: “Never”=5; “Rarely”=4; “Sometimes”=3; “Often”=2; “Very Often”=1
The total score was calculated by the sum of all the 10 items ranging from 10 to 50, with higher scores indicating better perceived cognitive functioning (i.e. lower impairment). […] The MISCI assessment was collected and analyzed at visits Screening, Day 1, Week 2, Week 4, Week 6, and Follow-up (Week 7). […] Additionally, the treatment group comparisons were analyzed using the paired ttest and nonparametric Wilcoxon signed-rank test.

[2] = tested on: subjects with fibromyalgia; assay: Revised Fibromyalgia Impact Questionnaire (FIQR)
Source text: As used herein, “FIQR” is Revised Fibromyalgia Impact Questionnaire. The FIQR is an updated version of the Fibromyalgia Impact Questionnaire which is an assessment of the physical functioning, work status, depression, anxiety, morning tiredness, pain, stiffness, fatigue and wellbeing in fibromyalgia subjects measured over the period of 1 week. The FIQR differs from the FIQ in that it includes questions on memory, tenderness, balance, and environmental sensitivity as well as modified function questions. All 21 FIQR questions are based on an 11-point numerical rating scale/Likert scale ranging from 0 to 10. Lower scores represent a better quality of life. The FIQR is made of the 3 following domains: • Function Domain Score • 9 Questions with Scores Ranging from 0 (No Difficulty) to 10 (Very Difficult) • Sum of those 9 Questions make up the Function Domain Score Ranging from 0 to 90 • Missing Data Imputation Factor: If at least 5 questions were answered, the Function Domain Score was multiplied by 9/(number of questions answered) and rounded off to the nearest whole number. Otherwise, the score was set to missing. • Overall Impact Domain Score • 2 Questions with Scores Ranging from 0 (Never) to 10 (Always) • Sum of those 2 Questions make up the Overall Impact Domain Score Ranging from 0 to 20 • Missing Data Imputation Factor: If 1 question was missing, the Overall Impact Domain Score was multiplied by 2. Otherwise, the score was set to missing. • Symptoms Domain Score • 10 Questions with Scores Ranging from 0 to 10 with Different Categorical Reponses Sum of those 10 Questions make up the Symptoms Domain Score Ranging from 0 to 100 Missing Data Imputation Factor: If at least 5 questions were answered, the Function Domain Score was multiplied by 10/(number of questions answered) and rounded off to the nearest whole number. Otherwise, the score was set to missing.
If all 3 domain scores could be calculated, the Total FIQR Score ranged from 0 to 100 and was calculated based on the normalization domain scores: (Function Domain Score/3)+Overall Impact Domain Score+(Symptoms Domain Score/2). Otherwise, the Total FIQR Score was set to missing. The Function and Symptoms domain scores collected on the CRF applied the normalization factors stated above (Function Domain Score/3 and Symptoms Domain Score/2) in order to calculate the Total FIQR Score on the CRF. As a result, the Function and Symptoms domain scores were derived by the definition stated above in the SAP as opposed to using the collected values on the CRF. The FIQR assessment was collected and analyzed at visits Screening, Day 1, Week 2, Week 4, Week 6, and Follow-up (Week 7). The observed total and domain scores, changes from baseline, and changes from treatment periods were summarized using descriptive statistics. Additionally, the treatment group comparisons were analyzed using the paired ttest and nonparametric Wilcoxon signed-rank test. All FIQR data collected and the calculated total and domain scores at each visit were presented in a subject listing.

[3] = tested on: subjects with fibromyalgia; assay: PROMIS Sleep Disturbance short form; details: not statistically significant
Source text: As used herein, the “PROMIS Sleep Disturbance” short form is Patient Reported Outcomes Measurement Information System Sleep Disturbance—Short Form. The PROMIS Sleep Disturbance short form version 1.0 8b is an 8-item instrument that assesses sleep disturbance in subjects 18 years and older. All 8 questions are based on a 5-point numerical rating scale/Likert scale ranging from 1 to 5 with different categorical responses. Lower scores represent a better quality of life. The total score was calculated by taking the sum of all 8 questions and ranged from 8 to 40. If at least 4 questions were answered, the total score was imputed if missing responses were present. The total score was multiplied by 8/(number of questions answered) and rounded off to the nearest whole number. Otherwise, the total score was set to missing.
The PROMIS Sleep Disturbance short form assessment was collected and analyzed at visits Screening, Day 1, Week 2, Week 4, Week 6, and Follow-up (Week 7). The observed total score, changes from baseline, and changes from treatment periods were summarized using descriptive statistics. Additionally, the treatment group comparisons were analyzed using the paired t-test and nonparametric Wilcoxon signed-rank test. All PROMIS Sleep Disturbance short form data collected and the calculated total score at each visit were presented in a subject listing.

[4] = Week 2 (placebo) to Week 4 (NYX-2925 20 mg)
[5] = Week 2 (placebo) to Week 6 (NYX-2925 200 mg)

## CC(C)C(=O)N1CCC[C@]12CN([C@H](C(N)=O)[C@@H](C)O)C2=O [NYX-2925, (2S, 3R)-3-hydroxy-2-((R)-5-isobutyryl-1-oxo-2,5-diazaspiro[3.4]octan-2-yl)butanamide]
[1]; [4]
  MISCI Total score, mean change: 1.1
[1]; [5]
  MISCI Total score, mean change: 0.9
[2]; NYX-2925 20 mg
  total FIQR score, change from baseline: reductions from baseline
[2]; [4]
  FIQR Symptoms Domain score, mean change: −2.1
  FIQR Total score, mean change: −0.5
[2]; [5]
  FIQR Function Domain score, mean change: −3.7
  FIQR Overall Impact Domain score, mean change: −2.0
[2]; Week 2 (placebo) to Week 6 (NYX-2925 200 mg), p=0.0135
  FIQR Total score, mean change: −6.3
[2]; Week 2 (placebo) to Week 6 (NYX-2925 200 mg), p=0.0207
  FIQR Symptoms Domain score, mean change: −6.2
[2]; week six, after four weeks of NYX-2925, scale 0 to 100, n=21
  Total FIQR score, reduction from baseline: 9.6 point
[3]; [4]
  PROMIS Sleep Disturbance short form score, mean change: −0.9
[3]; [5]
  PROMIS Sleep Disturbance short form score, mean change: −1.6
